Counter-ions that a name gives are not always drawn. Like-named read-outs stand apart in the source and are kept apart here.
Assays:
male Wistar rats [1] = assay: Somatic signs of the nicotine withdrawal syndrome; format: in vivo, rat; conditions: for total number of somatic signs: 24 h post pump removal, 12.5 h postbupropion
Description: Rats were placed individually in transparent plastic cylindrical containers (30×38 cm) in which they could move freely. Subjects were habituated to the containers for 10 min each day over 3 days before the first test session. During the test sessions the rats were observed blindly by an experienced observer for 10 min and the frequency of the following signs was recorded based on a checklist of nicotine abstinence signs (Hildebrand et al. 1999; Watkins et al. 2000; Malin 2001): body shakes, chews, cheek tremors, escape attempts, eye blinks, foot licks, gasps, genital licks, head shakes, ptosis, scratches, teeth chattering, writhes and yawns. Multiple successive counts of any sign required a distinct pause between episodes. Ptosis, if present continuously, was only counted once per minute. For statistical analyses, the total number of somatic signs was defined as the sum of individual occurrences of the above mentioned withdrawal signs. Further, the categories of “abdominal constrictions” included gasps and writhes; “facial fasciculation” included cheek tremors, chews, and teeth chattering; and “miscellaneous other signs” included shakes, escape attempts, licks, scratches, and yawns.
Separate drug-naive rats were prepared with osmotic minipumps containing nicotine (3.16 mg/kg per day for 7 days) dissolved in saline. […] Further, this nicotine dose was selected to allow direct comparison of the effects of bupropion on somatic signs (present experiment 4) and on reward threshold elevations (experiment 3 described above) observed during nicotine withdrawal. To induce the somatic signs of nicotine withdrawal the minipumps were removed 6 days and 18 h after implantation. The behavioral observations were conducted 6, 12 and 24 h after the removal of the minipumps. The rats were injected with bupropion (0, 5, 10, 20, 40 mg/kg, IP; n=6-8), 30 min prior to the 12-h time point. The selection of the time points was based on the time-course of the expression of the somatic signs after the termination of nicotine exposure (Epping-Jordan et al. 1998; Harrison et al. 2001a; Semenova and Markou 2003; Skjei and Markou 2003).

male Wistar rats [2] = assay: ICSS reward thresholds under baseline conditions, bupropion; format: in vivo, rat; conditions: bupropion 10-60 mg/kg IP, all doses tested, dose-dependent up to 40 mg/kg
Description: For each quarter turn, subjects received a 500 ms train of 0.1 ms cathodal square wave pulses at a frequency of 100 Hz. After successful acquisition of the response, defined as 200 consecutive reinforcements within allotted time period (usually <20 min) subjects were trained on a modification of the Kornetsky and Esposito discrete-trial currentthreshold procedure (Kornetsky and Esposito 1979), as described previously by Markou and Koob (1992).
Trials began with an electrical stimulus followed by a 7.5-s response window within which the animal could make a response to receive a second contingent stimulus identical to the initial noncontingent stimulus. A response during this 7.5-s window was considered a positive response, whereas the lack of a response was considered a negative response. Additional responses during a 2-s period immediately following a positive response had no consequence. The intertrial interval (ITI) that followed either a positive response or the end of the response window (in the case of a negative response) ranged from 7.5 to 12.5 s with an average duration of 10 s. […] Subjects then were tested on a current-threshold procedure in which stimulus intensities were varied during four alternating descending and ascending series with a step size of 5 mA. […]

male Wistar rats [3] = system: male Wistar rats
Description: Trials began with an electrical stimulus followed by a 7.5-s response window within which the animal could make a response to receive a second contingent stimulus identical to the initial noncontingent stimulus. A response during this 7.5-s window was considered a positive response, whereas the lack of a response was considered a negative response. Additional responses during a 2-s period immediately following a positive response had no consequence. The intertrial interval (ITI) that followed either a positive response or the end of the response window (in the case of a negative response) ranged from 7.5 to 12.5 s with an average duration of 10 s. […] Subjects then were tested on a current-threshold procedure in which stimulus intensities were varied during four alternating descending and ascending series with a step size of 5 mA. Blocks of three trials were offered at each current step with the starting current of the first descending series set at 30-40 mA above the subjects' individual baseline thresholds estimated at the end of preliminary training. […] An ascending series was terminated after two consecutive blocks of trials during which the animal made positive responses on at least two out of the three trials or after 15 successive increments were presented. The mean of the four current thresholds from the alternating series was defined as the subject's ICSS threshold for that session. A series was terminated after either 15 stimulus increments (or decrements) had occurred, or after the determination of the threshold for the series (see below). Each test session typically lasted 30 min.

dopamine transporter = target: T1, dopamine transporter (Homo sapiens, UniProt Q01959); conditions: therapeutically effective doses, humans (Meyer et al. 2002); cited from earlier work
T1 construct: host or cells: living human brain (in vivo imaging)
T1 sequence (Q01959 whole entry): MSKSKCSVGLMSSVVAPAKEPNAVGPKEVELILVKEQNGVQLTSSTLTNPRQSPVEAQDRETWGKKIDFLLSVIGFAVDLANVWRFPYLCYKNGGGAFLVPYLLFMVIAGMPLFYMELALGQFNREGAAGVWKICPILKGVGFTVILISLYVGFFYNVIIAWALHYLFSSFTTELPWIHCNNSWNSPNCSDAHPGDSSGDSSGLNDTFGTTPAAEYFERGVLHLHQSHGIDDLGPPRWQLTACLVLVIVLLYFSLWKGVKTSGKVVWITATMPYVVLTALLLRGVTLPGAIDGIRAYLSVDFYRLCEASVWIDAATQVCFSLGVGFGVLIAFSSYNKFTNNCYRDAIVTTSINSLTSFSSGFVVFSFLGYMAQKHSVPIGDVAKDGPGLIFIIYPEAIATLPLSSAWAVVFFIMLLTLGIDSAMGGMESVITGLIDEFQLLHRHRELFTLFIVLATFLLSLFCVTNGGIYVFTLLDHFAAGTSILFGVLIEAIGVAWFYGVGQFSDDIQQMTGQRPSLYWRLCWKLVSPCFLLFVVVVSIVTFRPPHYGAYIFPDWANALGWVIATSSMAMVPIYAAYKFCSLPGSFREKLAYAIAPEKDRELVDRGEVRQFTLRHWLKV

male Wistar rats [4] = assay: ICSS thresholds during and after withdrawal from chronic nicotine, bupropion; format: in vivo, rat
Text: Trials began with an electrical stimulus followed by a 7.5-s response window within which the animal could make a response to receive a second contingent stimulus identical to the initial noncontingent stimulus. A response during this 7.5-s window was considered a positive response, whereas the lack of a response was considered a negative response. Additional responses during a 2-s period immediately following a positive response had no consequence. The intertrial interval (ITI) that followed either a positive response or the end of the response window (in the case of a negative response) ranged from 7.5 to 12.5 s with an average duration of 10 s. […] Subjects then were tested on a current-threshold procedure in which stimulus intensities were varied during four alternating descending and ascending series with a step size of […]. Blocks of three trials were offered at each current step with the starting current of the first descending series set at […] above the subjects' individual baseline thresholds estimated at the end of preliminary training. […] An ascending series was terminated after two consecutive blocks of trials during which the animal made positive responses on at least two out of the three trials or after 15 successive increments were presented. The mean of the four current thresholds from the alternating series was defined as the subject's ICSS threshold for that session. A series was terminated after either 15 stimulus increments (or decrements) had occurred, or after the determination of the threshold for the series (see below). Each test session typically lasted 30 min.
Naive animals were prepared with osmotic minipumps containing either an individualized nicotine solution (3.16 mg/kg per day, free base) or saline. […] After implantation of the minipumps, thresholds were assessed daily thereafter to assess the effects of chronic nicotine exposure on reward thresholds. Seven days (exactly seven 24-h periods) after pump insertion, the pumps were removed in order to precipitate the nicotine withdrawal syndrome. ICSS thresholds were measured 12, 18, 24, 36, 48 and 72 h after pump removal. Animals were injected with bupropion (0, 10, 20, 40 mg/kg IP; n=8-11) 30 min prior to the 18-h time point.

rats = conditions: 28-day treatment, 20 mg/kg (McCarter and Kokkinidis 1988); cited from earlier work

CC(NC(C)(C)C)C(=O)c1cccc(Cl)c1 (stereo not drawn) [bupropion, Bupropion hydrochloride]
long-term effect on somatic signs (male Wistar rats [1]; acute bupropion, 12.5 h): has no long-term (12.5 h) effect on the expression of the somatic signs of nicotine withdrawal | total number of somatic signs (male Wistar rats [1]; bupropion 5 mg/kg): 18.6±4 | total number of somatic signs (male Wistar rats [1]; bupropion 10 mg/kg): 17.1±4.6 | total number of somatic signs (male Wistar rats [1]; bupropion 20 mg/kg): 14.1±2.2 | total number of somatic signs (male Wistar rats [1]; bupropion 40 mg/kg): 14.6±2.6 | abdominal constrictions (writhes and gasps) (male Wistar rats [1]; bupropion 10-40 mg/kg, 12-h withdrawal time point): reversed the withdrawal-induced increase in abdominal constrictions | total somatic signs (male Wistar rats [1]; bupropion 20-40 mg/kg, 30 min prior to the 12-h withdrawal timepoint): resulted in a reversal of the expression of total somatic signs | brain reward thresholds (male Wistar rats [2]): lowered brain reward thresholds compared to the vehicle conditions | brain reward thresholds (male Wistar rats [3]; bupropion 5 mg/kg alone): without effect on reward thresholds when given alone | reward-enhancing effects of acute nicotine (male Wistar rats [3]; bupropion 5 mg/kg with nicotine 0.25 mg/kg): completely reversed the reward-enhancing effects of acute nicotine | brain reward thresholds (male Wistar rats [3]; bupropion 10 and 20 mg/kg in combination with nicotine 0.25 mg/kg): resulted in threshold lowerings that were not significantly different from threshold lowerings induced by nicotine administration alone | brain reward thresholds (male Wistar rats [3]; bupropion 10 and 20 mg/kg, saline co-treated): lowered brain reward thresholds in animals that were co-treated with saline | occupancy at the dopamine transporter (dopamine transporter): 22% | area under the curve of the threshold data, 72-h withdrawal period (male Wistar rats [4]; bupropion 40 mg/kg, nicotine-pretreated animals): completely reversed | reward thresholds (male Wistar rats [4]; bupropion 40 mg/kg, nicotine-pretreated animals, 24 h time point): still exhibited a significant (P<0.001) reduction in reward thresholds | reward thresholds (male Wistar rats [4]; bupropion 10, 20, 40 mg/kg, thirty minutes after administration (18-h time point), nicotine- or saline-pretreated): significant and dose-dependent lowering of reward thresholds at all doses | reduction in threshold (male Wistar rats [4]; bupropion, saline pretreated animals, 24 h): short-lived and completely reversed at the next time point tested | rate of responding for ICSS (rats): had no effect on the rate of responding for ICSS
